Experimental data reported in patent US20060233738A1, “Composition for promoting production of type 1 collagen and/or elastin” (priority 2003, published 2006).

How the values were obtained:
Assay type in all cases: cell-based
[1] = test system: type I collagen; test: Promotion of type I collagen production in normal human skin fibroblast cells (western blotting, image analysis); conditions: NFB cells, 24 hours
Description: (§1) Each compound was dissolved in DMSO to produce a stock solution, and an appropriate amount of each stock solution was added to a culture solution and applied to cells. By following the same procedure, a stock solution was prepared by dissolving silymarin (silymarin group manufactured by Sigma-Aldrich) in the aforementioned DMSO, and an appropriate amount of the stock solution was added to a culture solution to check the effect of adding silymarin.
(§2) Normal human skin fibroblast cells (hereinafter referred to as “NFB”), provided as CCD1059 (purchased from Dainippon Pharmaceutical), were cultured in a skin fibroblast cell culture medium (FGM manufactured by Sanko Junyaku) at 37° C. in a 5% CO2 incubator. FGM was prepared by adding a human skin fibroblast cell growth factor (1 μg/ml), insulin ([…]), gentamycin (50 μg/ml) and amphotericin B (50 μg/ml) to a base fibroblast cell culture medium. This test used cells whose passage number was 3 to 7. […]
(§3) Protein in the sample was separated by SDS-PAGE and transferred to a nitrocellulose membrane. […] The obtained substance was washed, and then detected using ECL plus western blotting detection reagent (manufactured by Amersham Biosciences). The detected band was scanned using an image scanner (manufactured by Amersham Biosciences) and analyzed using image master software to produce numerical data.

[2] = test system: type I collagen; test: Promotion of type I collagen production in a three-dimensional human skin model (TESTSKIN LSE-high); conditions: concentration 0.05% in dipropylene glycol, 2 x 24 hours
Source text: (§4) Three-dimensional human skin models are widely used in safety evaluations and effectiveness evaluations as pseudo human skins. In this evaluation, TESTSKIN (LSE-high) (manufactured by Toyobo) was used as a three-dimensional human skin model, and cultured in accordance with the protocol specified in the attached document. Silybum marianum extract containing 70% silymarin (manufactured by Indina), soybean lecithin (manufactured by Wako Pure Chemical Industries) and retinoic acid (all-trans-retinoic acid manufactured by Wako Pure Chemical Industries) were dissolved to respective concentrations in dipropylene glycol (manufactured by Wako Pure Chemical Industries). […]
(§5) Next, 60 μl of each tested substance was added to tissues in an assay ring and the tissues were cultured for 24 hours. […] Protein in the sample was determined using a DC protein assay kit (manufactured by Bio-Rad Laboratories) based on the Lowry method (Non-patent Literature 11), and 20 mM Tris-HCl (pH 7.5) was added to achieve 2 μg/μl. […]
The obtained sample was used to evaluate the property to promote type I collagen production using the western blotting method. […] The obtained substance was washed, and then detected using ECL plus western blotting detection reagent (manufactured by Amersham Biosciences). […]

[3] = test system: elastin; test: Promotion of elastin production in a three-dimensional human skin model (TESTSKIN LSE-high); conditions: concentration 0.05% in dipropylene glycol, 2 x 24 hours
Source text: as §4, §5
In the same manner as described in the aforementioned evaluation of the property to promote type I collagen production in a three-dimensional human skin model, the property to promote elastin production was evaluated using a three-dimensional human skin model.

[4] = test system: elastin; test: Promotion of elastin production in normal human skin fibroblast cells (western blotting, image analysis); conditions: NFB cells, 24 hours
Description: as §1, §2, §3

## CC1=C(/C=C/C(C)=C/C=C/C(C)=C/C(=O)O)C(C)(C)CCC1 [Retinoic acid, all-trans-retinoic acid]
[1]; treated concentration 250 nM
  Ratio to untreated control (full-length type I collagen): 2.0
[1]; treated concentration 500 nM
  Ratio to untreated control (full-length type I collagen): 1.4
[2]
  Relative expression level (full-length type I collagen): 2.0
[3]
  Relative expression level (full-length elastin): 3.3
[4]; treated concentration 250 nM
  Ratio to untreated control (full-length elastin): 2.8
[4]; treated concentration 500 nM
  Ratio to untreated control (full-length elastin): 1.4
